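Five compound concentrations were applied to cells in 96-well plates for 48 hours; endpoints were derived by simple linear interpolation of the resulting dose-response curve. The concentration for 50% growth inhibition is given as GI50.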 The source made the active and inactive calls. Cut-off read from the data, not from the text of the source: active = GI50 up to about 1.1 µM and inactive = higher.
Experiments:
Assay in all cases: NCI tumour cell line growth inhibition, 48 h
786-0 = system: 786-0
A549 = system: A549
CCRF-CEM = system: CCRF-CEM
COLO 205 = system: COLO 205
EKVX = system: EKVX
HCT-116 = system: HCT-116
Hs-578T = system: Hs-578T
KM12 = system: KM12
LOX IMVI = system: LOX IMVI
MDA-MB-231 = system: MDA-MB-231
NCI-H23 = system: NCI-H23
OVCAR-3 = system: OVCAR-3
SF-268 = system: SF-268
SK-MEL-28 = system: SK-MEL-28
SK-MEL-2 = system: SK-MEL-2
SR = system: SR
SW-620 = system: SW-620
U-251 = system: U-251
K562 = system: K562
SK-MEL-5 = system: SK-MEL-5

Measured: GI50

Cc1ccc(/C=C2\N=C(N3CCOCC3)NC2=O)cc1
inactive: 786-0 > 100 µM | A549 > 100 µM | CCRF-CEM > 100 µM | COLO 205 > 100 µM | EKVX > 100 µM | HCT-116 > 100 µM | Hs-578T > 100 µM | KM12 > 100 µM | LOX IMVI > 100 µM | MDA-MB-231 > 100 µM | NCI-H23 > 100 µM | OVCAR-3 > 100 µM | SF-268 > 100 µM | SK-MEL-28 > 100 µM | SK-MEL-2 > 100 µM | SR > 100 µM | SW-620 > 100 µM | U-251 > 100 µM

Nc1nnc2n1C(=O)C(C1(C3=Nc4nnc(N)n4C3=O)Cc3ccccc3C1=O)=N2
inactive: 786-0 > 100 µM | A549 43.5 µM | CCRF-CEM 48 µM | COLO 205 > 100 µM | EKVX > 100 µM | HCT-116 > 100 µM | Hs-578T > 100 µM | K562 94 µM | KM12 > 100 µM | LOX IMVI 87.5 µM | MDA-MB-231 31.8 µM | NCI-H23 > 100 µM | OVCAR-3 > 100 µM | SF-268 > 100 µM | SK-MEL-28 > 100 µM | SK-MEL-5 > 100 µM | SR 76.6 µM | SW-620 > 100 µM

COc1ccc(Cn2nc(OCc3ccccn3)c3cc([N+](=O)[O-])ccc32)cc1
inactive: 786-0 > 100 µM | A549 > 100 µM | CCRF-CEM > 100 µM | Hs-578T > 100 µM | K562 > 100 µM | KM12 > 100 µM | LOX IMVI > 100 µM | MDA-MB-231 > 100 µM | NCI-H23 > 100 µM | OVCAR-3 > 100 µM | SF-268 > 100 µM | SK-MEL-28 > 100 µM | SK-MEL-2 49.5 µM | SK-MEL-5 > 100 µM | SR > 100 µM | SW-620 > 100 µM

CCOC(=O)[C@@]1(C(C)=O)CC(C)=C(C)C[S@@+]1[O-]
inactive: 786-0 > 100 µM | A549 > 100 µM | COLO 205 > 100 µM | EKVX > 100 µM | HCT-116 > 100 µM | Hs-578T > 100 µM | K562 > 100 µM | KM12 > 100 µM | LOX IMVI > 100 µM | MDA-MB-231 > 100 µM | NCI-H23 > 100 µM | OVCAR-3 > 100 µM | SF-268 > 100 µM | SK-MEL-28 > 100 µM | SK-MEL-2 > 100 µM | SR > 100 µM | SW-620 > 100 µM | U-251 > 100 µM

Cc1cn([C@H]2C[C@](C)(CO)N(C)O2)c(=O)[nH]c1=O
inactive: 786-0 > 100 µM | A549 > 100 µM | COLO 205 > 100 µM | EKVX > 100 µM | HCT-116 > 100 µM | Hs-578T > 100 µM | K562 > 100 µM | KM12 > 100 µM | LOX IMVI > 100 µM | MDA-MB-231 > 100 µM | NCI-H23 > 100 µM | SF-268 > 100 µM | SK-MEL-28 > 100 µM | SK-MEL-2 > 100 µM | SK-MEL-5 > 100 µM | SR > 100 µM | SW-620 > 100 µM | U-251 > 100 µM

O=C(/C=C/c1cccc(Oc2ccccc2)c1)NCc1ccc(C(=O)NCCc2ccccc2)cc1
inactive: 786-0 24.1 µM | A549 > 100 µM | COLO 205 > 100 µM | EKVX > 100 µM | HCT-116 > 100 µM | Hs-578T > 100 µM | K562 > 100 µM | KM12 > 100 µM | LOX IMVI > 100 µM | MDA-MB-231 82.4 µM | NCI-H23 43.7 µM | OVCAR-3 > 100 µM | SF-268 33.5 µM | SK-MEL-28 > 100 µM | SK-MEL-2 > 100 µM | SK-MEL-5 > 100 µM | SR > 100 µM | SW-620 > 100 µM | U-251 35 µM
